Experimental data taken from BindingDB's records for patent US20230339890 (Kineta, 2023).

Molecular target: T1, Lanosterol 14-alpha demethylase (Homo sapiens, UniProt Q16850)
T1 sequence (Q16850 whole entry): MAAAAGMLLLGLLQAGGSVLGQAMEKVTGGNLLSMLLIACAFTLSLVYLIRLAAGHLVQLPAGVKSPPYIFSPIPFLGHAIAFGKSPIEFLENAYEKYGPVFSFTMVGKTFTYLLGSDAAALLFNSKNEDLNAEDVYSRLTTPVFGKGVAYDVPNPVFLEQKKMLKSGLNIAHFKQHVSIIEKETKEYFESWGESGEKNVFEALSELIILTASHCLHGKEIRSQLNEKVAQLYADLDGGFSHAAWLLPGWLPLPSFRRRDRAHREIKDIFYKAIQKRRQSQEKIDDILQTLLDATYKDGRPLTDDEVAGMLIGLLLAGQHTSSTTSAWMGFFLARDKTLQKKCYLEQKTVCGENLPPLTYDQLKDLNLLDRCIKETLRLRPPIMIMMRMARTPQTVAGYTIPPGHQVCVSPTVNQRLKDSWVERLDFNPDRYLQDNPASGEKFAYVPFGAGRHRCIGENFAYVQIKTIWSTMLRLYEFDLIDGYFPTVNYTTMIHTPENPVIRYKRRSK
Assay: Inhibition of CYP51A1
From the text: Method: Recombinant human CYP51A1 (lanosterol-14a-demethylase) enzyme was coexpressed with CYP reductase in bacterial membranes and the fluorescent substrate BOMCC (a nonnatural substrate that causes increases in fluorescence upon CYP51A1-dependent demethylation) was used to obtain 8-point dose concentration-response curves for each compound.

IC50	Compound
> 1 µM	CCC(=O)N(CCc1ccc(C(F)(F)F)nc1)C[C@@H](O)c1cccnc1 [US20230339890, Compound 30]
< 0.1 µM	CCC(=O)N(C[C@@H](O)c1cccnc1)C1CCc2cc(Cl)c(Cl)cc2C1 (some centres undefined) [US20230339890, Compound 70]
< 0.1 µM	CC(C)(C)OC(=O)NCCCCCN(C[C@@H](O)c1cccnc1)C(=O)Cc1ccc(C#N)c(Cl)c1 [US20230339890, Compound 142]
< 0.1 µM	CC(C)(C)OC(=O)NCCCCN(C[C@@H](O)c1cccnc1)C(=O)Cc1ccc(C(F)(F)F)nc1 [US20230339890, Compound 144]
